Columns and labels:
[1] = system: RIN5F (Rat Insulinoma) cells; experiment: In vitro glucose-dependent insulin secretion (RIN5F cell assay); format: cell-based; conditions: 16.7 mM glucose load, mean ± S.D., n = 3
human glucagon receptor = biological target: T1, human glucagon receptor (Homo sapiens, UniProt P47871); experiment: In vitro human glucagon antagonist activity (inhibition of cAMP production), CHO/human glucagon R cells; format: cell-based
T1 construct: The full-length cDNA was cloned in pcDNA3.1(Invitrogen); expressed in transfected cells

DPP IV = DPP IV (Homo sapiens, UniProt P27487); experiment: Stability against DPP IV enzyme; format: in vitro ADME; conditions: 2 μM, 37° C., 24 h
In short: (§1)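 Reactions were stopped with 10% (v/v) TFA/H2O, then analysed by HPLC on a column equilibrated in TFA/H2O at 1 mL/min. Absorbance was read at 206 nm by UV, and peaks were collected manually for ESI-MS identification.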

[2] = Stability in human plasma; format: in vitro ADME; conditions: 2 μM, 37° C.
In short: as §1

[3] = Stability in simulated gastric fluid; format: in vitro ADME; conditions: 37° C., pH 1.5, pepsin
In short: as §1

[4] = Stability in simulated intestinal fluid; format: in vitro ADME; conditions: 37° C.
In short: as §1

[5] = Stability against liver microsomes; format: in vitro ADME, human
In short: as §1

T1 sequence (P47871 26-477): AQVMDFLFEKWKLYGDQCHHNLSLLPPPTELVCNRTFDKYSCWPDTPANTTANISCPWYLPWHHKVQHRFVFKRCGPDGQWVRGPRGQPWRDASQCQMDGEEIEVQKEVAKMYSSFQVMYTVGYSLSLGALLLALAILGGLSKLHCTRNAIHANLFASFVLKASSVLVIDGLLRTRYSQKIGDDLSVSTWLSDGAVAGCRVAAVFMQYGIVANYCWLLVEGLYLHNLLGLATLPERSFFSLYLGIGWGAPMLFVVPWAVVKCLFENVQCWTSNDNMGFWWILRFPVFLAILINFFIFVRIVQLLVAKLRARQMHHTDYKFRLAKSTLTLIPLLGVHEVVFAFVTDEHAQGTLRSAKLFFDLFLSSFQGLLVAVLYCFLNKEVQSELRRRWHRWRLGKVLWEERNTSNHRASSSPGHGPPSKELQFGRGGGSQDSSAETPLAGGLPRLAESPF
Sequence of DPP IV (P27487 whole entry, species assumed): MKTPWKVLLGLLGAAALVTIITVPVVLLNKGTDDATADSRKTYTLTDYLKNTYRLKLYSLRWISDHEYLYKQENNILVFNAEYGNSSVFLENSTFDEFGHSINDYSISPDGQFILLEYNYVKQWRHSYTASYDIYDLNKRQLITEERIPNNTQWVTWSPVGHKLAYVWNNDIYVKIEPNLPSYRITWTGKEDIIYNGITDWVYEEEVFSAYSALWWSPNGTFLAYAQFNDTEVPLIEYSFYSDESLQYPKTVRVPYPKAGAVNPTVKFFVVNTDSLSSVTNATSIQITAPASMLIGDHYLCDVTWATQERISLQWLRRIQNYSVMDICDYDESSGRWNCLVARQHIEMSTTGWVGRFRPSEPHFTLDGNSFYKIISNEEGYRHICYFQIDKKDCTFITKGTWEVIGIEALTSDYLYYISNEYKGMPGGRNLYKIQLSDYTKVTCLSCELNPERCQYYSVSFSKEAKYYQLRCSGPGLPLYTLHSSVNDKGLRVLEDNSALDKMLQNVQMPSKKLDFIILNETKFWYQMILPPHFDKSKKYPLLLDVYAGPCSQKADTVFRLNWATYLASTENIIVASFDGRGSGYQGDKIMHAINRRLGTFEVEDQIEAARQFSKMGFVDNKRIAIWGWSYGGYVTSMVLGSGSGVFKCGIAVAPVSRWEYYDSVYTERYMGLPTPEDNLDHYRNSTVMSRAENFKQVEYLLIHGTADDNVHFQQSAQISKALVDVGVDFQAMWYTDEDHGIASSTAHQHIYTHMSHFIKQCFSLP

## CCc1cc(OC)ccc1-c1ccc(CC(NC(=O)[C@H](CC(=O)O)NC(=O)[C@H](CO)NC(=O)[C@@H](NC(=O)[C@H](Cc2ccccc2)NC(=O)[C@@H](NC(=O)CNC(=O)[C@H](CCC(N)=O)NC(=O)[C@H](CO)NC(=O)[C@@H](N)Cc2c[nH]cn2)[C@@H](C)O)[C@@H](C)O)C(=O)NC(Cc2ccc(-c3ccccc3C)cc2)C(N)=O)cc1 (single isomer, unassigned) [compound 5]
[1]; 0.1 nM test compd.
  Insulin secretion: 12.1 ± 0.52 pg/µg/h
[1]; 1 nM test compd.
  Insulin secretion: 14.1 ± 0.16 pg/µg/h
[1]; 10 nM test compd.
  Insulin secretion: 28.0 ± 0.36 pg/µg/h
Human glucagon receptor; 1 nM test compound (fourth concentration column, between 100 nM and 10 μM) with saturated concentration of glucagon peptide
  Human Glucagon receptor antagonistic activity, inhibition of cAMP production of Glucagon peptide: 14 ± 0.03 pmol/ml/μg prt
Human glucagon receptor; 1 nM test compound with saturated concentration of glucagon peptide
  Human Glucagon receptor antagonistic activity, inhibition of cAMP production of Glucagon peptide: 20 ± 0.06 pmol/ml/μg prt
Human glucagon receptor; 10 nM test compound with saturated concentration of glucagon peptide
  Human Glucagon receptor antagonistic activity, inhibition of cAMP production of Glucagon peptide: 18 ± 0.09 pmol/ml/μg prt
Human glucagon receptor; 100 nM test compound with saturated concentration of glucagon peptide
  Human Glucagon receptor antagonistic activity, inhibition of cAMP production of Glucagon peptide: 16 ± 0.01 pmol/ml/μg prt
Human glucagon receptor; 10 μM test compound with saturated concentration of glucagon peptide
  Human Glucagon receptor antagonistic activity, inhibition of cAMP production of Glucagon peptide: 12 ± 0.01 pmol/ml/μg prt
DPP IV
  % degradation in 24 h when incubated with DPP-IV enzyme: 76%
[2]
  half-life (t1/2) in human plasma: (9) h
[2]; 24 h
  % degradation in 24 h when incubated with human plasma: 78%
[3]; 2 μM, 24 h
  % degradation in 24 h when incubated with simulated gastric fluid: 100%
[3]; simulated gastric fluid with pepsin, read-out: half-life (t1/2) in simulated gastric fluid
  half-life at 2 μM: 30 min
[4]; 2 μM, 24 h, pH 7.5
  % degradation in 24 h when incubated with simulated intestinal fluid: 100%
[4]; simulated intestinal fluid, pH 7.5, read-out: half-life (t1/2) in simulated intestinal fluid
  half-life at 2 μM: 30 min
[5]; 2 μM, 37° C., 24 h
  % degradation in 24 h when incubated with liver microsomes: 100%
[5]; human, human liver microsomes, pH 7.8, 37° C., read-out: half-life (t1/2) with liver microsomes
  half-life at 2 μM: 30 min
